According to patent publication US10081631B2, “2-(1H-indazol-3-yl)-1H-imidazo[4,5-C]pyridine and therapeutic uses thereof” (Samumed, LLC, priority 2014, dated 2018):

What was measured:
[1] = test system: Wnt activity (Sp5-Luc reporter, SW480 colon carcinoma cells); experiment: Screening assay for Wnt activity: Sp5-Luc reporter gene assay in SW480 cells; format: cell-based; conditions: Homo sapiens, 42 h incubation, luminescence
Method in brief: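 IC50 values come from variable-slope four-parameter fits of luciferase signal normalized to DMSO wells. Stable Sp5-Luc reporter SW480 colon carcinoma cells were exposed to compounds in a 3-fold dilution series (source plates from 10 mM stock) for forty-two hours at 37 °C.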

[2] = test system: primary human fibroblasts derived from IPF patients (LL29 cells); experiment: Inhibition of fibrosis: TGF-β1-treated primary human fibroblasts from IPF patients (LL29), αSMA staining; format: cell-based; conditions: Fibroblast, 96 h, TGF-β1 20 ng/mL, 4 days, % αSMA-positive cells
Method in brief: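 […] (0.1% DMSO) on LL29 cells in F12 with 1% FBS, with TGF-β1 (20 ng/mL) added 1 h after plating; 4 days at 37 °C. SYTOX-positive dead cells were excluded and the % αSMA-positive cells was imaged, normalized to TGF-β1/DMSO wells, triplicates; EC50 by non-linear regression.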

SMILES	IC50 [1] [nM]	EC50 [2] [nM]
CC(C)Nc1cncc(-c2ccc3[nH]nc(-c4nc5c(-c6ccoc6)nccc5[nH]4)c3c2)c1 [Compound 272, 5-(3-(4-(Furan-3-yl)-1H-imidazo[4,5-c]pyridin-2-yl)-1H-indazol-5-yl)-N-isopropylpyridin-3-amine]	< 1	9
CCCCC(=O)Nc1cncc(-c2ccc3[nH]nc(-c4nc5c(-c6ccoc6)nccc5[nH]4)c3c2)c1 [Compound 278, N-(5-(3-(4-(Furan-3-yl)-1H-imidazo[4,5-c]pyridin-2-yl)-1H-indazol-5-yl)pyridin-3-yl)pentanamide]	15	291
O=C(Nc1cncc(-c2ccc3[nH]nc(-c4nc5c(-c6ccoc6)nccc5[nH]4)c3c2)c1)C1CCC1 [Compound 280, N-(5-(3-(4-(Furan-3-yl)-1H-imidazo[4,5-c]pyridin-2-yl)-1H-indazol-5-yl)pyridin-3-yl)cyclobutanecarboxamide]	27.9	1240
c1cc2[nH]c(-c3n[nH]c4ccc(-c5cncc(CNCC6CCCC6)c5)cc34)nc2c(-c2ccoc2)n1 [Compound 284, 1-Cyclopentyl-N-((5-(3-(4-(furan-3-yl)-1H-imidazo[4,5-c]pyridin-2-yl)-1H-indazol-5-yl)pyridin-3-yl)methyl)methanamine]	> 10000	9
CCC(=O)Nc1cncc(-c2ccc3[nH]nc(-c4nc5c(-c6cccs6)nccc5[nH]4)c3c2)c1 [Compound 287, N-(5-(3-(4-(Thiophen-2-yl)-1H-imidazo[4,5-c]pyridin-2-yl)-1H-indazol-5-yl)pyridin-3-yl)propionamide]	10	62
CN(C)c1cncc(-c2ccc3[nH]nc(-c4nc5c(-c6cccs6)nccc5[nH]4)c3c2)c1 [Compound 293, N,N-Dimethyl-5-(3-(4-(thiophen-2-yl)-1H-imidazo[4,5-c]pyridin-2-yl)-1H-indazol-5-yl)pyridin-3-amine]	9	36
CC(C)C(=O)Nc1cncc(-c2ccc3[nH]nc(-c4nc5c(-c6cccs6)nccc5[nH]4)c3c2)c1 [Compound 295, N-(5-(3-(4-(Thiophen-2-yl)-1H-imidazo[4,5-c]pyridin-2-yl)-1H-indazol-5-yl)pyridin-3-yl)isobutyramide]	30.8	186
CN(C)Cc1cncc(-c2ccc3[nH]nc(-c4nc5c(-c6cccs6)nccc5[nH]4)c3c2)c1 [Compound 299, N,N-Dimethyl-1-(5-(3-(4-(thiophen-2-yl)-1H-imidazo[4,5-c]pyridin-2-yl)-1H-indazol-5-yl)pyridin-3-yl)methanamine]	332	608
O=C(Nc1cncc(-c2ccc3[nH]nc(-c4nc5c(-c6cccs6)nccc5[nH]4)c3c2)c1)C1CC1 [Compound 305, N-(5-(3-(4-(Thiophen-2-yl)-1H-imidazo[4,5-c]pyridin-2-yl)-1H-indazol-5-yl)pyridin-3-yl)cyclopropanecarboxamide]	4	22
O=C(Nc1cncc(-c2ccc3[nH]nc(-c4nc5c(-c6cccs6)nccc5[nH]4)c3c2)c1)C1CCCC1 [Compound 307, N-(5-(3-(4-(Thiophen-2-yl)-1H-imidazo[4,5-c]pyridin-2-yl)-1H-indazol-5-yl)pyridin-3-yl)cyclopentanecarboxamide]	34.8	422
FC1(F)CCN(Cc2cncc(-c3ccc4[nH]nc(-c5nc6c(-c7cccs7)nccc6[nH]5)c4c3)c2)C1 [Compound 311, 2-(5-(5-((3,3-Difluoropyrrolidin-1-yl)methyl)pyridin-3-yl)-1H-indazol-3-yl)-4-(thiophen-2-yl)-1H-imidazo[4,5-c]pyridine]	320	83
CC(C)CC(=O)Nc1cncc(-c2ccc3[nH]nc(-c4nc5c(-c6ccc(F)s6)nccc5[nH]4)c3c2)c1 [Compound 314, N-(5-(3-(4-(5-Fluorothiophen-2-yl)-1H-imidazo[4,5-c]pyridin-2-yl)-1H-indazol-5-yl)pyridin-3-yl)-3-methylbutanamide]	44.7	665
CC(C)(C)C(=O)Nc1cncc(-c2ccc3[nH]nc(-c4nc5c(-c6ccc(F)s6)nccc5[nH]4)c3c2)c1 [Compound 320, N-(5-(3-(4-(5-Fluorothiophen-2-yl)-1H-imidazo[4,5-c]pyridin-2-yl)-1H-indazol-5-yl)pyridin-3-yl)pivalamide]	5.2	115
Fc1ccc(-c2nccc3[nH]c(-c4n[nH]c5ccc(-c6cncc(CN7CCCC7)c6)cc45)nc23)s1 [Compound 326, 4-(5-Fluorothiophen-2-yl)-2-(5-(5-(pyrrolidin-1-ylmethyl)pyridin-3-yl)-1H-indazol-3-yl)-1H-imidazo[4,5-c]pyridine]	284	940
O=C(Nc1cncc(-c2ccc3[nH]nc(-c4nc5c(-c6ccc(F)s6)nccc5[nH]4)c3c2)c1)C1CCC1 [Compound 332, N-(5-(3-(4-(5-Fluorothiophen-2-yl)-1H-imidazo[4,5-c]pyridin-2-yl)-1H-indazol-5-yl)pyridin-3-yl)cyclobutanecarboxamide]	32.6	363
Cc1ccc(-c2nccc3[nH]c(-c4n[nH]c5ccc(-c6cncc(N)c6)cc45)nc23)s1 [Compound 341, 5-(3-(4-(5-Methylthiophen-2-yl)-1H-imidazo[4,5-c]pyridin-2-yl)-1H-indazol-5-yl)pyridin-3-amine]	1.3	9
Cc1ccc(-c2nccc3[nH]c(-c4n[nH]c5ccc(-c6cncc(NC(=O)C(C)C)c6)cc45)nc23)s1 [Compound 347, N-(5-(3-(4-(5-Methylthiophen-2-yl)-1H-imidazo[4,5-c]pyridin-2-yl)-1H-indazol-5-yl)pyridin-3-yl)isobutyramide]	7	38
Cc1ccc(-c2nccc3[nH]c(-c4n[nH]c5ccc(-c6cncc(CN7CCCCC7)c6)cc45)nc23)s1 [Compound 353, 4-(5-Methylthiophen-2-yl)-2-(5-(5-(piperidin-1-ylmethyl)pyridin-3-yl)-1H-indazol-3-yl)-1H-imidazo[4,5-c]pyridine]	844	9
Cc1ccc(-c2nccc3[nH]c(-c4n[nH]c5ccc(-c6cncc(NC(=O)CC(C)(C)C)c6)cc45)nc23)s1 [Compound 354, 3,3-Dimethyl-N-(5-(3-(4-(5-methylthiophen-2-yl)-1H-imidazo[4,5-c]pyridin-2-yl)-1H-indazol-5-yl)pyridin-3-yl)butanamide]	12.7	86
Cc1ccc(-c2nccc3[nH]c(-c4n[nH]c5ccc(-c6cncc(NC(=O)C7CCC7)c6)cc45)nc23)s1 [Compound 358, N-(5-(3-(4-(5-Methylthiophen-2-yl)-1H-imidazo[4,5-c]pyridin-2-yl)-1H-indazol-5-yl)pyridin-3-yl)cyclobutanecarboxamide]	9	21
CC(=O)c1ccc(-c2nccc3[nH]c(-c4n[nH]c5ccc(-c6cccnc6)cc45)nc23)s1 [Compound 368, 1-(5-(2-(5-(Pyridin-3-yl)-1H-indazol-3-yl)-1H-imidazo[4,5-c]pyridin-4-yl)thiophen-2-yl)ethan-1-one]	< 1	14
CC(=O)c1ccc(-c2nccc3[nH]c(-c4n[nH]c5ccc(-c6cncc(NC(=O)Cc7ccccc7)c6)cc45)nc23)s1 [Compound 374, N-(5-(3-(4-(5-Acetylthiophen-2-yl)-1H-imidazo[4,5-c]pyridin-2-yl)-1H-indazol-5-yl)pyridin-3-yl)-2-phenylacetamide]	9	9
CC(=O)c1ccc(-c2nccc3[nH]c(-c4n[nH]c5ccc(-c6cncc(NC(=O)C7CCCCC7)c6)cc45)nc23)s1 [Compound 386, N-(5-(3-(4-(5-Acetylthiophen-2-yl)-1H-imidazo[4,5-c]pyridin-2-yl)-1H-indazol-5-yl)pyridin-3-yl)cyclohexanecarboxamide]	476	536
Cc1ccncc1-c1ccc2[nH]nc(-c3nc4c(-c5cc(F)cc(CNS(C)(=O)=O)c5)nccc4[nH]3)c2c1 [Compound 395, N-(3-Fluoro-5-(2-(5-(4-methylpyridin-3-yl)-1H-indazol-3-yl)-1H-imidazo [4,5-c]pyridin-4-yl)benzyl)methanesulfonamide]	85	26
CS(=O)(=O)NCc1cc(F)cc(-c2nccc3[nH]c(-c4n[nH]c5ccc(-c6cncc(NC(=O)Cc7ccccc7)c6)cc45)nc23)c1 [Compound 400, N-(5-(3-(4-(3-Fluoro-5-(methylsulfonamidomethyl)phenyl)-1H-imidazo[4,5-c]pyridin-2-yl)-1H-indazol-5-yl)pyridin-3-yl)-2-phenylacetamide]	> 10000	9
CS(=O)(=O)NCc1cc(F)cc(-c2nccc3[nH]c(-c4n[nH]c5ccc(-c6cncc(NC(=O)c7ccccc7)c6)cc45)nc23)c1 [Compound 401, N-(5-(3-(4-(3-Fluoro-5-(methylsulfonamidomethyl)phenyl)-1H-imidazo[4,5-c]pyridin-2-yl)-1H-indazol-5-yl)pyridin-3-yl)benzamide]	32	9990
CCCC(=O)Nc1cncc(-c2ccc3[nH]nc(-c4nc5c(-c6cc(F)cc(CNS(C)(=O)=O)c6)nccc5[nH]4)c3c2)c1 [Compound 407, N-(5-(3-(4-(3-Fluoro-5-(methylsulfonamidomethyl)phenyl)-1H-imidazo[4,5-c]pyridin-2-yl)-1H-indazol-5-yl)pyridin-3-yl)butyramide]	24	19
